Test results published in US9765065B2, “Therapeutic substituted cyclopentanes” (ALLERGAN, INC., priority 2007, dated 2017).

Legend:
hTP = target: T1, hTP (Homo sapiens, UniProt P21731); experiment: Other receptors hTP; format: cell-based
T1 sequence (P21731 1-343): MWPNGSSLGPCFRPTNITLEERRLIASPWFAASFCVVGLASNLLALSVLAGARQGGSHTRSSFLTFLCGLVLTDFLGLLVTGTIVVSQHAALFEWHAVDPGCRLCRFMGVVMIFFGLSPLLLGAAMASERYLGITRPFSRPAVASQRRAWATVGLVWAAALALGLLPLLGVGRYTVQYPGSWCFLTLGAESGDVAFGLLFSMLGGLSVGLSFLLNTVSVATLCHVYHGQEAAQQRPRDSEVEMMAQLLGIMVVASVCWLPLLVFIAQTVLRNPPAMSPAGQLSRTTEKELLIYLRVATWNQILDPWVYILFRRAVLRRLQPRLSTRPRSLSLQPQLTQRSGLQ
Description: (§1) U.S. patent application Ser. No. 11/553,143, filed on Oct. 26, 2006, incorporated by reference herein in its entirety, describes the methods used to obtain the in vitro data in the table below.

EP4 [1] = target: T2, EP4 (Homo sapiens, UniProt P35408); experiment: EP4 binding Ki
T2 sequence (P35408 whole entry): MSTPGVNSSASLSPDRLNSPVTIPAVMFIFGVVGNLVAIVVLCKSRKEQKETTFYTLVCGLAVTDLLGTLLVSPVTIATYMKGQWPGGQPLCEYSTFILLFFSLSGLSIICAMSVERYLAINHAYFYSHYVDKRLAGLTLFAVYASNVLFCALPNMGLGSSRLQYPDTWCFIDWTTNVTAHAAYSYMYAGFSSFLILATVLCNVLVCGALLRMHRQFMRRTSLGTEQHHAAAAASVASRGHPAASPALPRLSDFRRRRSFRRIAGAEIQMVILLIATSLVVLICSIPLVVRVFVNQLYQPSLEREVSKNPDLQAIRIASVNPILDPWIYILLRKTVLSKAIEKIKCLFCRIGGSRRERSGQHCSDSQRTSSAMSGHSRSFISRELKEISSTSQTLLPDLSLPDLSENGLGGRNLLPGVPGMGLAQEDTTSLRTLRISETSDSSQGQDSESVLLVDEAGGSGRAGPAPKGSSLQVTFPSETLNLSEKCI
Description: as §1

EP2 [2] = target: T3, EP2 (Homo sapiens, UniProt P43116); experiment: EP2 flipr; format: cell-based
T3 sequence (P43116 whole entry): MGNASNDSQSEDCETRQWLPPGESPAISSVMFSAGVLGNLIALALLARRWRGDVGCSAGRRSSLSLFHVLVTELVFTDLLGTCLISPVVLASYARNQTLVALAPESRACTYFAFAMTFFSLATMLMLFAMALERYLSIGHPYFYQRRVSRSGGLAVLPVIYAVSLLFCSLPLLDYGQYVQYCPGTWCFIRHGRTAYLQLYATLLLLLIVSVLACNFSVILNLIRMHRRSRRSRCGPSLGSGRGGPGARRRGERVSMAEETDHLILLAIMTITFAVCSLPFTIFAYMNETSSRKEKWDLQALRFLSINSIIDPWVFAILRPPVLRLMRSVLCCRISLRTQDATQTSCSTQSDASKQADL
Description: as §1

EP4 [3] = target: T2, EP4; experiment: EP4 flipr; format: cell-based
Description: as §1

EP2 [4] = target: T3, EP2; experiment: EP2 binding Ki
Description: as §1

EP2 [5] = target: T3, EP2; experiment: EP2 cAMP; format: cell-based
Description: as §1

hDP = target: T4, hDP (Homo sapiens, UniProt Q13258); experiment: Other receptors hDP; format: cell-based
T4 sequence (Q13258 1-359): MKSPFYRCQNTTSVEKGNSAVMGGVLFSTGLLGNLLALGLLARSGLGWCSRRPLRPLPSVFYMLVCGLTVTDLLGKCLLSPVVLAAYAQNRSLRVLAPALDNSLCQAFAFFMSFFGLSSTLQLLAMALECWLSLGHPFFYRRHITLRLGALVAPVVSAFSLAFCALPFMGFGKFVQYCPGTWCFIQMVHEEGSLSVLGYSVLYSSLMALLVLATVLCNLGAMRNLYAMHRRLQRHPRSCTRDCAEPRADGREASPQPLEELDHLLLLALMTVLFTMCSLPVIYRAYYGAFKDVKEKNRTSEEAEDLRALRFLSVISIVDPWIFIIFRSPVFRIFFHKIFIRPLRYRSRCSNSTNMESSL
Description: as §1

hEP3A = target: T5, hEP3A (Homo sapiens, UniProt P43115); experiment: Other receptors hEP3A; format: cell-based
T5 sequence (P43115 1-390): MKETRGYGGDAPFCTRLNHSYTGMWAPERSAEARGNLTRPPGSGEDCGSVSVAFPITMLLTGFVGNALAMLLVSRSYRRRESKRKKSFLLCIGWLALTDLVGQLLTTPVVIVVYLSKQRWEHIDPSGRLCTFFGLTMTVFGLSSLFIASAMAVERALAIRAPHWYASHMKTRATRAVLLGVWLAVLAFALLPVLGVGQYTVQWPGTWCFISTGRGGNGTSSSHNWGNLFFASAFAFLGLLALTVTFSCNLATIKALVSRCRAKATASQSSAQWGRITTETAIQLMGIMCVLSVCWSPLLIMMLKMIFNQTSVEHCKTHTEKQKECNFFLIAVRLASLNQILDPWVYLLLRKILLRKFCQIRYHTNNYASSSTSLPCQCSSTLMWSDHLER
Description: as §1

EC50 (hTP) [nM] | Ki (EP4 [1]) [nM] | EC50 (EP2 [2]) [nM] | EC50 (EP4 [3]) [nM] | Ki (EP2 [4]) [nM] | EC50 (EP2 [5]) [nM] | EC50 (hDP) [nM] | EC50 (hEP3A) [nM] | SMILES
65300 | 878 | 22 | > 10000 | 7 | 0.3 | – | – | O=C(O)c1ccc(CCC[C@@H]2[C@@H](/C=C/c3cc(F)cc(F)c3)[C@H](O)C[C@H]2Cl)s1 [Example 6, 5-(3-((1R,2R,3R,5R)-5-chloro-2-((E)-3,5-difluorostyryl)-3-hydroxycyclopentyl)propyl)thiophene-2-carboxylic acid]
3760 | 144 | 17 | 16900 | 2 | 0.1 | 12300 | 9880 | Cc1cccc(/C=C/[C@@H]2[C@@H](CCCc3ccc(C(=O)O)s3)[C@H](Cl)C[C@H]2O)c1 [Example 12, 5-(3-((1R,2R,3R,5R)-5-chloro-3-hydroxy-2-(3-methylstyryl)cyclopentyl)propyl)thiophene-2-carboxylic acid]
– | 825 | – | 5880 | 10 | 0.8 | 18300 | 6520 | O=C(O)c1ccc(CCC[C@@H]2[C@@H](C#Cc3cccs3)[C@H](O)C[C@H]2Cl)s1 [Example 28, 5-(3-((1R,2S,3R,5R)-5-chloro-3-hydroxy-2-(thiophen-2-ylethynyl)cyclopentyl)propyl)thiophene-2-carboxylic acid]
– | 60 | – | 3.3 | 1.5 | 0.16 | 14800 | 2880 | O=C(O)c1csc(SCC[C@@H]2[C@@H](C#Cc3cc(Cl)cc(Cl)c3)[C@H](O)C[C@H]2Cl)n1 [Example 34, 2-(2-((1R,2S,3R,5R)-5-chloro-2-((3,5-dichlorophenyl)ethynyl)-3-hydroxycyclopentyl)ethylthio)thiazole-4-carboxylic acid]
– | 135 | 85 | > 10000 | 2 | 0.13 | > 10000 | – | O=C(O)c1ccc(CCC[C@@H]2[C@@H](/C=C/c3cc(Cl)cc(CO)c3)[C@H](O)C[C@H]2Cl)s1 [Example 2, 5-(3-((1R,2R,3R,5R)-5-chloro-2-(3-chloro-5-(hydroxymethyl)styryl)-3-hydroxycyclopentyl)propyl)-thiophene-2-carboxylic acid]
95 | 3220 | 7140 | – | 425 | 207 | 6370 | – | O=C(O)c1ccc(CCC[C@@H]2[C@@H](/C=C\c3cc(F)cc(F)c3)[C@H](O)C[C@H]2Cl)s1 [Example 7, 5-(3-((1R,2R,3R,5R)-5-chloro-2-((Z)-3,5-difluorostyryl)-3-hydroxycyclopentyl)propyl)thiophene-2-carboxylic acid]
– | 1990 | 458 | 1920 | 38 | 3 | 2100 | – | O=C(O)c1ccc(CCC[C@@H]2[C@@H](/C=C\c3cc(Cl)nc(Cl)c3)[C@H](O)C[C@H]2Cl)s1 [Example 5, 5-(3-((1R,2R,3R,5R)-5-chloro-2-((Z)-2-(2,6-dichloropyridin-4-yl)vinyl)-3-hydroxycyclopentyl)propyl)-thiophene-2-carboxylic acid]
– | 463 | – | 10 | 5 | 0.08 | 1030 | 1500 | O=C(O)c1csc(SCC[C@@H]2[C@@H](C#Cc3ccccc3)[C@H](O)C[C@H]2Cl)n1 [Example 35, 2-(2-((1R,2S,3R,5R)-5-chloro-3-hydroxy-2-(phenylethynyl)cyclopentyl)ethylthio)thiazole-4-carboxylic acid]
> 10000 | 440 | 37 | > 10000 | 2.2 | 0.2 | – | > 10000 | O=C(O)c1ccc(C=CC[C@@H]2[C@@H](C=Cc3cc(Cl)cc(Cl)c3)[C@H](O)C[C@H]2Cl)s1 [Example 1, 5-(3-((1R,2R,3R,5R)-5-chloro-2-(3,5-dichlorostyryl)-3-hydroxycyclopentyl)prop-1-enyl)thiophene-2-carboxylic acid]
